# Assay results as given in patent US20170107203A1, “HETEROCYCLIC INHIBITORS OF THE SODIUM CHANNEL” (EPIRUS BIOPHARMACEUTICALS, INC., priority 2014, published 2017).
# Biological target: T1, human Nav1.7 (Homo sapiens, UniProt Q15858)
# T1 construct: expressed in transfected cells
# Assay: Assessment of Nav1.7 activity on PatchXpress (voltage dependence / slow inactivation parameters)
# Format: cell-based
# Details: compound at 10 μM, relative to 0.2% DMSO vehicle control; for hNav1.7: Reduction in current at 20 mV (normalized data) Delta Ratio: before/after 30 sec conditioning pulse at 20 mV; for hNav1.7: Shift in voltage dependence of inactivation (mV) Delta Vhalf: PatchXpress
# Description: The generation of a HEK 293F cell line stably expressing human Nav1.7/Navp1 was achieved by co-transfecting human SCN9A and human SCN1B cDNAs, subcloned into plasmid vectors, utilizing standard transfection techniques. Clones were selected using appropriate selection agents (0.3 mg/mL Zeocin and 0.8 mg/mL Geneticin) and maintained in Dulbecco's Modified Eagle medium, 10% fetal bovine serum, 1% non-essential amino acids to ˜80% confluence at 37° C. in a humidified incubator with 95% atmosphere and 5% CO2.
# On the day of each experiment, cells that were grown to 80% confluence in a T75 flask were harvested for use on PatchXpress (Molecular Devices, CA, USA). Following a recovery period at 37° C. in a humidified incubator with 95% atmosphere and 5% CO2 in Dulbecco's Modified Eagle Medium, the media was replaced with an external recording solution containing (in mM): 90 TEACI, 50 NaCl, 1.8 CaCl2, 1 MgCl2, 10 HEPES, 10 glucose, adjusted to pH 7.4 with TEAOH and 300 mOsm with sucrose. The internal recording solution contained (in mM): 129 CsF, 2 MgCl2, 11 EGTA, 10 HEPES, 6 NaCl, 3 Na2ATP adjusted to pH 7.2 with CsOH and 280 mOsm with sucrose. The automated liquid handling facility of PatchXpress dispensed cells and added compound. Modulation of Nav1.7 channels by compounds was assessed by promoting the channels into the inactivated state using a conditioning voltage pulse of variable amplitude, followed by a brief hyperpolarizing pulse with a subsequent depolarized voltage step to measure the current amplitude in the presence and absence of compound. Compounds were assayed at 10 μM. Based upon this Patch express protocol, four electrophysiological parameters were measured relative to a 0.2% DMSO vehicle control (Table 2).
# T1 sequence (Q15858 whole entry): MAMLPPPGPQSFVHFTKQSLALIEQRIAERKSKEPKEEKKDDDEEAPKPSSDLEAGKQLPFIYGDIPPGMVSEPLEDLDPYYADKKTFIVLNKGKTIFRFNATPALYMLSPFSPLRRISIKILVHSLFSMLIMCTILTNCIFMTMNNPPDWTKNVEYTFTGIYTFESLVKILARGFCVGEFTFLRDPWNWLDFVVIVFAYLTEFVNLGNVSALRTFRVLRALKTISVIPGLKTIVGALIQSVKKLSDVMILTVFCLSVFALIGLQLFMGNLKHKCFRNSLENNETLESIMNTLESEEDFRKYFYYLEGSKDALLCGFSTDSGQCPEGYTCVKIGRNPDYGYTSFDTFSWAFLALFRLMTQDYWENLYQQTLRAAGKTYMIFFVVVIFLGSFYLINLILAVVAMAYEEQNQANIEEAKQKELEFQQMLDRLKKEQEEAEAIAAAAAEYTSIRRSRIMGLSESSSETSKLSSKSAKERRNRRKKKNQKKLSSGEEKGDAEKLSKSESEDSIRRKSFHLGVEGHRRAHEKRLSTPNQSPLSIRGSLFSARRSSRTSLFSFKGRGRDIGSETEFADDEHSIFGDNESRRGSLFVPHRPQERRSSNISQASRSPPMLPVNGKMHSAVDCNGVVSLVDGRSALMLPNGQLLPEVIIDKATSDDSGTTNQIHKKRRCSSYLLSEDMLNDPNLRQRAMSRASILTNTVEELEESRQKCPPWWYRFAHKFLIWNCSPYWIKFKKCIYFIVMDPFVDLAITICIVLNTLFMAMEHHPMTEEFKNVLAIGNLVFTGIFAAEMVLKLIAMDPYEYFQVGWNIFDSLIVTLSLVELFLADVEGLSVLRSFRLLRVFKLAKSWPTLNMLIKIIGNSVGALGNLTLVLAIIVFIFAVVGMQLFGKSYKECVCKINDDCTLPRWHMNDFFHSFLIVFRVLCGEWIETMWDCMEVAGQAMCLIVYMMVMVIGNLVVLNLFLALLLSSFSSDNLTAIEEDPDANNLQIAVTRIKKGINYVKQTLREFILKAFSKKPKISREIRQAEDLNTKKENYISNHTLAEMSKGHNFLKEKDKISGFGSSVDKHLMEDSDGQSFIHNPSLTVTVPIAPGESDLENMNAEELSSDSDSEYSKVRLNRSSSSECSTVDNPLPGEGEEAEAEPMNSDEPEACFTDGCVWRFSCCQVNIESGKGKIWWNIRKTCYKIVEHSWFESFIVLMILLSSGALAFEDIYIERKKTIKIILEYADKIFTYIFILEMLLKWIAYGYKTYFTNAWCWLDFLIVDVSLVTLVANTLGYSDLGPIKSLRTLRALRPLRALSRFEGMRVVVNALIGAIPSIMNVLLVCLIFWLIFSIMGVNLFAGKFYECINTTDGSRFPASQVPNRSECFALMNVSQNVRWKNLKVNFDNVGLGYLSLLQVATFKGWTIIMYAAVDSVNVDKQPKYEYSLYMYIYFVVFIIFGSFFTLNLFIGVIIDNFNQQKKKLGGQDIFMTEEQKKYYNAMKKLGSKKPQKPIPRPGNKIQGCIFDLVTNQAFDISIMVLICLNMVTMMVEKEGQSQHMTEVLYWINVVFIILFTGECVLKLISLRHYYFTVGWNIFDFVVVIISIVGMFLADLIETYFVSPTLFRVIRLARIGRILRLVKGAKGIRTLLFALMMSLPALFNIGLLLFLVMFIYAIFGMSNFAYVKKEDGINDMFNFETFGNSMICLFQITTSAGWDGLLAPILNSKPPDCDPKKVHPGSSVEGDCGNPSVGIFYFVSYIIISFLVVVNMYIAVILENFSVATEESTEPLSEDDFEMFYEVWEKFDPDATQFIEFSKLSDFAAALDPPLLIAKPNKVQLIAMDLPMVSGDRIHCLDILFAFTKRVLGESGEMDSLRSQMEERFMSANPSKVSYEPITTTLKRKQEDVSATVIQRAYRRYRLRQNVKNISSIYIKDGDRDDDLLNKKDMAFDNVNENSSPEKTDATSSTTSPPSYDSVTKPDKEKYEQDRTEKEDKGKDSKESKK
# T1 sequence (Q07699 19-218 partner): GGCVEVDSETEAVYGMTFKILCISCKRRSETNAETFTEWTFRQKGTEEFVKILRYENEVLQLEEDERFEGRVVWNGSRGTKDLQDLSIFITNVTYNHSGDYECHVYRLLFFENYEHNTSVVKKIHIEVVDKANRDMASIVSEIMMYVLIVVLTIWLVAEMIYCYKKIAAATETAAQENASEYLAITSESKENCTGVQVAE
Structure (SMILES),hNav1.7: Reduction in current at 20 mV (normalized data) Delta Ratio,hNav1.7: Voltage dependence of activation (mV) VDEP [mV],hNav1.7: Voltage dependence of fast inactivation (mV) VDEP [mV],hNav1.7: Shift in voltage dependence of inactivation (mV) Delta Vhalf [mV]
"CN[C@H](CC(C)C)C(=O)NCCOc1cc(C(F)(F)F)cc(C(F)(F)F)c1 [Compound 13, (R)-N-(2-(3,5-bis(trifluoromethyl)phenoxy)ethyl)-4-methyl-2-(methylamino)pentanamide]",−0.17,−5.90,−4.00,−23.80
"N[C@H](Cc1cccc(F)c1)c1nc2cc(C(F)(F)F)cc(C(F)(F)F)c2[nH]1 [Compound 55, (R)-1-(4,6-bis(trifluoromethyl)-1H-benzo[d]imidazol-2-yl)-2-(3-fluorophenyl)ethan-1-amine]",−0.26,−8.6,−6.2,−15.1
"CC(C)CC(N)C(=O)N[C@H](C)COc1cc(C(F)(F)F)cc(C(F)(F)F)c1 (stereo partly drawn) [Compound 5, 2-amino-N-((R)-1-(3,5-bis(trifluoromethyl)phenoxy)propan-2-yl)-4-methylpentanamide]",−0.26,−4.60,−6.30,−25.20
"O=C(NCCOc1cc(C(F)(F)F)cc(C(F)(F)F)c1)C1CCCN1 (centres unmarked) [Compound 14, N-(2-(3,5-bis(trifluoromethyl)phenoxy)ethyl) pyrrolidine-2-carboxamide]",−0.17,−4.00,−1.10,−25.30
"NCC(=O)NCc1cc(C(F)(F)F)cc(C(F)(F)F)c1 [Compound 78, 2-amino-N-(3,5-bis(trifluoromethyl)benzyl)acetamide]",−0.04,−10.5,−4.6,−4.2
"CC(C)(C)OC(=O)N[C@H](Cc1cccc(C(F)(F)F)c1)C(=O)NCc1nc2c(C(F)(F)F)cc(C(F)(F)F)cc2[nH]1 [Compound 73, tert-butyl (R)-(1-(((4,6-bis(trifluoromethyl)-1H-benzo[d]imidazol-2-yl)methyl)amino)-1-oxo-3-(3-(trifluoromethyl)phenyl)propan-2-yl)carbamate]",−0.07,−12.5,−5.4,−3.7
"O=C(NC[C@H]1CCCN1)Nc1cc(C(F)(F)F)cc(C(F)(F)F)c1 [Compound 49, (R)-1-(3,5-bis(trifluoromethyl)phenyl)-3-(pyrrolidin-2-ylmethyl)urea]",−0.18,−10.20,−7.80,−6.40
"Cc1cccc(C)c1OCC(C)NC(=O)CN (centres unmarked) [Compound 17, 2-amino-N-(1-(2,6-dimethylphenoxy)propan-2-yl)acetamide]",−0.10,−5.80,−5.90,−12.40
"CC(C)(CC(=O)N1CCNCC1)c1nc2cc(C(F)(F)F)cc(C(F)(F)F)c2[nH]1 [Compound 62, 3-(4,6-bis(trifluoromethyl)-1H-benzo[d]imidazol-2-yl)-3-methyl-1-(piperazin-1-yl)butan-1-one]",−0.19,−7.4,−3.8,−12.5
"CC(C)(C)OC(=O)N[C@H](Cc1cccc(C(F)(F)F)c1)C(=O)NCc1nc2ccc(-c3ccc(F)c(Cl)c3)cc2[nH]1 [Compound 76, tert-butyl (R)-(1-(((6-(3-chloro-4-fluorophenyl)-1H-benzo[d]imidazol-2-yl)methyl)amino)-1-oxo-3-(3-(trifluoromethyl)phenyl)propan-2-yl)carbamate]",−0.06,−11.4,−3.9,−0.3
"NC1(c2nc3cc(C(F)(F)F)cc(C(F)(F)F)c3[nH]2)Cc2ccccc2C1 [Compound 52, 2-(4,6-bis(trifluoromethyl)-1H-benzo[d]imidazol-2-yl)-2,3-dihydro-1H-inden-2-amine]",−0.28,−7.2,−8.2,−14.9
"CC(C)(c1nc2cc(F)cc(F)c2[nH]1)N1CCNCC1=O [Compound 64, 1-(2-(4,6-difluoro-1H-benzo[d]imidazol-2-yl)propan-2-yl)piperazin-2-one]",−0.16,−7.1,−5.9,−5.4
"Cc1cccc(C)c1OCC(C)NC(=O)C(C)(C)CC(=O)N1CCNCC1 (centres unmarked) [Compound 33, N-(1-(2,6-dimethylphenoxy)propan-2-yl)-2,2-dimethyl-4-oxo-4-(piperazin-1-yl)butanamide]",−0.07,−8.70,−6.00,−5.30
"O[C@@H]1CN[C@H](c2nc3cc(C(F)(F)F)cc(C(F)(F)F)c3[nH]2)C1 [Compound 85, (3S,5S)-5-(5,7-bis(trifluoromethyl)-1H-benzo[d]imidazol-2-yl)pyrrolidin-3-ol]",0.03,−3.4,−3.2,0.3
"O=C1NC(=O)C(c2cc(C(F)(F)F)cc(C(F)(F)F)c2)N1 (centres unmarked) [Compound 41, 5-(3,5-bis(trifluoromethyl)phenyl) imidazolidine-2,4-dione]",0.00,−9.00,−5.30,−2.80
"O=C1CNCCN1Cc1nc2cc(Br)ccc2[nH]1 [Compound 63, 1-((6-bromo-1H-benzo[d]imidazol-2-yl)methyl)piperazin-2-one]",−0.17,−8.1,−6.4,−9.7
"N[C@H](Cc1ccc(F)cc1)Cc1nc2cc(C(F)(F)F)cc(C(F)(F)F)c2[nH]1 [Compound 56, (R)-1-(4,6-bis(trifluoromethyl)-1H-benzo[d]imidazol-2-yl)-3-(4-fluorophenyl)propan-2-amine]",−0.21,−14.4,−3.3,−16.8
"N[C@H](C(=O)NCCOc1cc(C(F)(F)F)cc(C(F)(F)F)c1)c1ccccc1 [Compound 9, (S)-2-amino-N-(2-(3,5-bis(trifluoromethyl)phenoxy)ethyl)-2-phenylacetamide]",−0.21,−8.10,−7.90,−18.30
"CC(C)(CC(=O)N1CCNCC1)c1nc2cc(F)cc(F)c2[nH]1 [Compound 67, 3-(4,6-difluoro-1H-benzo[d]imidazol-2-yl)-3-methyl-1-(piperazin-1-yl)butan-1-one]",−0.13,−9.7,−7.6,−7.8
"CC(C)(CN1CCNCC1=O)c1nc2cc(F)cc(F)c2[nH]1 [Compound 70, 1-(2-(4,6-difluoro-1H-benzo[d]imidazol-2-yl)-2-methylpropyl)piperazin-2-one]",−0.08,−5.3,−5.7,−4.6
